Test results reported in US11596668B2, “Tissue repair” (THE UNIVERSITY OF SUSSEX, priority 2017, dated 2023).

How the values were obtained:
HIF-1 [1] = experiment: HIF-1 in plasma by ELISA after local application on carotid artery; assay type: in vivo, Sprague Dawley rats; conditions: 24 h
Method: (§1) Male animal study: Sprague Dawley rats (450 g) were used in this study. Animals were anesthetized using 2% isoflurane where the rats were placed in a supine position. The right carotid artery was exposed and DMOG was applied locally at different concentrations (0-7.5 mg/Kg) on the artery using pluronic gel (30% w/w). 3 rats were used in each concentration group.
ELISA: After 24 h, blood was taken from the rat's tail in tubes containing EDTA as an anti-coagulant. Blood was kept on ice and centrifuged to separate the plasma which was immediately treated with a protease inhibitor. HIF-1 was quantified in the collected plasma using the ELISA assay as described in example 2. After 24 h, treated animals were culled and both the right (treated) and left (untreated) carotid arteries were isolated and snap frozen for further analysis.

[2] = tested on: vascular endothelial growth factor (VEGF); experiment: VEGF gene expression by real time qPCR in RAECs; assay type: cell-based, rat; conditions: 100 μM, 18 h, 21% O2; reaches level similar to cells at 1% oxygen
Method: (§2) Cell culture: Rat aortic endothelial cells (RAECs) were seeded into 24-well plates and cultured until ˜80% confluent after which they were incubated with or without DMOG for 18 h at normal oxygen levels (21% O2). Cells incubated at 1% O2 where used as a positive control for HIF-1.
Real time qPCR: The gene expression of vascular endothelial growth factor (VEGF), a HIF-1 target gene, was analysed by quantitative polymerase chain reaction (qPCR). Cells were lysed using TRIzol (Invitrogen, Life Technologies) and RNA was then extracted and purified. RNA quality and concentration were determined using a NanoDrop ND-1000 (NanoDrop Technologies). Reverse transcription and real-time quantitative PCR (qPCR) were carried out on RNA samples for VEGF and β2-microglobulin (a housekeeping gene not affected by change in oxygen levels), using TaqMan gene expression assays (Applied Biosystems/Life Technologies). For gene expression quantification, the comparative threshold cycle (ΔΔCT) method was used following manufacturer's guide-lines. Results were normalized to β2-microglobulin expression and expressed as arbitrary units using one of the normoxic untreated samples as a calibrator. […]

rat carotid artery = experiment: Balloon catheter injury (angioplasty) model, endothelial regrowth by Evan's blue staining; assay type: in vivo, Sprague Dawley rats; conditions: DMOG 5 mg/Kg alone, local hydrogel, 5 days after injury
Text: (§3) Angioplasty model: Balloon catheter injury (angioplasty) was the model used as an in vivo injury model using Sprague Dawley rats (450 g). Animals were anesthetized using 2% isoflurane where the rats were placed in a supine position. The right carotid artery was exposed and a (2F Fogarty catheter) was used to cause injury. The catheter was inserted into the common carotid artery via the external carotid to cause complete removal of the vascular endothelium from the common carotid artery down to its junction with the aortic arch. DMOG (5 mg/Kg) and EPO (100 ug/Kg) were administered either alone or in combination in the form of a hydrogel (30% w/v pluronic F127 gel) and applied to the artery after injury. Endothelial regrowth was then assessed using Evan's blue staining (injected IV in the tail vein 30 min before culling the animal) 0 and 5 days after injury to assess the area of de-endothelialised surface; re-endothelialised regions remain unstained. Images of stained arteries were quantified using Image J software.

human fibroblasts = experiment: Scratch assay, skin injury model, fibroblasts; assay type: cell-based; conditions: agent alone (DMOG 100 μM or EPO 1 ng/ml), 3% serum, 21% oxygen, vs untreated cells
Method: (§4) An in vitro injury model using cells relevant to wound injury were used. Two different cell lines; human keratinocytes (HaCaT) and human fibroblasts were used as skin injury models.
(§5) Scratch assay: As described in example 3, the reparative effect of EPO (1 ng/mL) and DMOG (100 uM) were tested alone or in combination on HaCaT and fibroblasts incubated in cell culture medium (Dulbeccos cell culture medium) containing 3% serum in 21% oxygen for 24 h.

[3] = tested on: human keratinocytes (HaCaT); experiment: Scratch assay, skin injury model, keratinocytes; assay type: cell-based; conditions: agent alone (DMOG 100 μM or EPO 1 ng/ml), 3% serum, 21% oxygen, vs untreated cells
Method: as §4, §5

HIF-1 [4] = experiment: HIF-1 in plasma by ELISA post balloon injury; assay type: in vivo, Sprague Dawley rats; conditions: DMOG 5 mg/Kg local hydrogel, 24 h post injury
Text: as §3
ELISA: Blood was collected from venous tail at 0, 1 and 5 days post injury. Plasma was separated and used for quantitative measurement of HIF-1 using ELISA method as described earlier.

[5] = tested on: rat aortic smooth muscle cells; experiment: Proliferation assay, smooth muscle cells; assay type: cell-based; conditions: 0-200 μM, 24 h
Method: (§6) Proliferation assay: Proliferation of rat aortic endothelial cells (RAECs) and rat aortic smooth muscle cells (isolated from rats at animal unit at Sussex University) was evaluated using Trypan Blue exclusion test. Cells were seeded in 96 well plates at a seeding density of 1×10^4 cells/mL (0.15 mL/well). After 24 h, cells where treated with or without different concentrations of 2 HIF-1 inducers; DMOG and BIQ (0-200 μM). After another 24 hours, Trypan Blue was added and the cells that were stained (dead) and unstained (live) were counted. Results were expressed as number of cells/mL.

HIF-1 [6] = experiment: HIF-1 protein levels in cell lysates by ELISA; assay type: cell-based, rat; conditions: 100 μM, 18 h, 21% O2; reaches level similar to cells at 1% oxygen
Method: as §2
Enzyme linked immunosorbent assay (ELISA): HIF-1 protein levels were measured using ELISA. Treated cells were lysed in 80 μL lysis buffer (25 mmol/L Tris HCl pH 7. 6, 0.1% SDS, deoxycholate, 1% NP40, 0.5 mol/L EDTA, 40 mmol/L EGTA and protease inhibitors). Lysates were then centrifuged at 11,000 g for 15 min at 4° C. and the supernatant was collected. Protein concentrations were quantified using a BCA reagent kit (Pierce Biotechnology). HIF was measured using an ELISA kit (R&D systems and biotechne, UK) and expressed as pg/mg protein.
Similar to the methods described in example 2, HIF-1 protein expression and VEGF gene expression were quantitatively measured in vitro using ELISA and real time qPCR respectively using different the different HIF-1 inducers at different concentrations (0-500 uM).

[7] = tested on: rat aortic endothelial cells (RAECs); experiment: Proliferation assay, endothelial cells; assay type: cell-based; conditions: 24 h; for proliferation of rat aortic endothelial cells: 100 μM (0.1 mM); for optimum concentration for enhancing proliferation of rat aortic endothelial cells: tested 0-200 μM
Method: as §6

[8] = tested on: vascular endothelial growth factor (VEGF); experiment: VEGF gene expression in carotid artery by qPCR after local application; assay type: in vivo, Sprague Dawley rats; conditions: 24 h
Method: as §1
Real time qPCR: RNA was extracted and purified from the frozen artery sections using TRIzol (Invitrogen, Life Technologies). RNA quality and concentrations were determined using a NanoDrop ND-1000 (NanoDrop Technologies). Reverse transcription and real-time quantitative PCR (qPCR) were carried out on RNA samples for VEGF and β2-microglobulin as described in example 2.

[9] = tested on: rat aortic endothelial cells (RAECs); experiment: Scratch assay (in vitro injury model), wound closure; assay type: cell-based; conditions: HIF-1 inducer 100 μM alone, 21% oxygen, 5% serum, vs untreated cells
Method: Scratch assay: This assay was used as an in vitro model of injury in rat aortic endothelial cells (RAECs). The effect of EPO on wound closure was investigated in either 21% or 1% O2. A reproducible scratch was produced in the endothelial monolayer and thereafter, either EPO (1 ng/mL) or saline (control) was added to the cells (in rat endothelial growth medium containing 5% serum) and subsequently incubated in 21% or 1% O2 for 24 hours. The defined area of the scratch was photographed under an inverted microscope (Olympus CKX41; Olympus Corporation, Tokyo, Japan) at lox magnification using a Micropix 5 megapixel colour complementary metal-oxide semiconductor digital camera (Olympus Cooperation). The position of the wound image was standardized each time against a horizontal line drawn on the base of the plate passing through the centre of each well. The scratch area was quantified using ImageJ software (National institutes of Health, Bethesda, Md., USA).
Scratch assay: Scratch assay was used as described in example 1. Cells where treated with DMOG (100 μM) and/or EPO (at 1 ng/mL). Cells incubated with medium containing 10% serum where used as positive control to reflect the maximum wound closure the cells could attain after 24 h. […]

[10] = 0-7.5 mg/Kg applied locally on carotid artery in pluronic gel
[11] = local application on carotid artery

SMILES | HIF levels in plasma (HIF-1 [1]; [10]) | optimal dose to cause an increase in HIF-1 (HIF-1 [1]; [11]) | gene expression of VEGF [2] | repair of the endothelial lining of rat carotid artery (rat carotid artery) | % wound closure after 24 h (human fibroblasts) | % wound closure after 24 h [3] | HIF-1 levels in rat plasma (HIF-1 [4]) | proliferation of smooth muscle cells [5] | HIF levels in cell lysates (HIF-1 [6]) | proliferation of rat aortic endothelial cells [7] | optimum concentration for enhancing proliferation of rat aortic endothelial cells [7] | gene expression of VEGF in carotid artery [8, 10] | optimal dose to cause an increase in VEGF [8, 11] | % wound closure after 24 h [9]
COC(=O)CNC(=O)C(=O)OC [DMOG, dimethyloxalylglycine] | concentration dependent effect | 5 mg/kg | increase | significant effect | no significant different | no significant different | significantly increased | no effect | increase | enhanced | 100 µM | concentration dependent effect | 5 mg/kg | 
O=C(O)CNC(=O)c1nc(Cl)c2ccccc2c1O [BIQ, N-[(1-Chloro-4-hydroxy-3-isoquinolinyl)carbonyl]glycine] |  |  |  |  |  |  |  | no effect |  | enhanced | 100 µM |  |  | 
O=C(O)CNC(=O)c1c(O)c2ccccc2n(Cc2ccccc2)c1=O [IOX, N-[[1,2-Dihydro-4-hydroxy-2-oxo-1-(phenylmethyl)-3-quinolinyl]carbonyl]glycine] |  |  |  |  |  |  |  |  |  |  |  |  |  | no change
